Measured values reported in patent US20250136586A1, “Substituted 7-(Pyrimidin-4-yl)Quinolin-4(1H)-One Compounds as Cyclin Dependent Kinase Inhibitors” (BeiGene, Ltd., priority 2022, published 2025).

Key:
[1] = target: CDK4/Cyclin D1 (Homo sapiens (Human), UniProt P11802); test: TR-FRET kinase inhibition assay, CDK4/Cyclin D1; assay type: biochemical; settings: 1 mM ATP, 0.15 μM Rb (Ser780)-biotin substrate, read-out: CDK4D1 IC50
Method: Compounds disclosed herein were tested for inhibition of CDK4/Cyclin D1 or CDK6/Cyclin D3 kinase in an assay based on the time-resolved fluorescence-resonance energy transfer (TR-FRET) methodology. […] The kinase was incubated with compound for 60 minutes at room temperature and the reaction was initiated by the addition of ATP and Rb (Ser780)-biotin substrate. After reaction at room temperature for 120 minutes, an equal volume of stop/detection solution was added according to the manufacture's instruction (Cisbio Bioassays). The stop/detection solution contained Streptavidin-XL665 and Anti-pRb (Ser780) mAb-Eu Cryptate in Detection buffer (Cisbio Bioassays). […] The inhibition percentage of CDK4/Cyclin D1 or CDK6/Cyclin D3 kinase activity in presence of increasing concentrations of compounds was calculated based on the ratio of fluorescence at 665 nm to that at 620 nm. The IC50 for each compound was derived from fitting the data to the four-parameter logistic equation by Dotmatics.

[2] = target: CDK6/Cyclin D3 (Homo sapiens (Human), UniProt Q00534); test: TR-FRET kinase inhibition assay, CDK6/Cyclin D3; assay type: biochemical; settings: 1 mM ATP, 0.15 μM Rb (Ser780)-biotin substrate, read-out: CDK6D3 IC50
CDK6/Cyclin D3, sequence (Q00534 whole entry): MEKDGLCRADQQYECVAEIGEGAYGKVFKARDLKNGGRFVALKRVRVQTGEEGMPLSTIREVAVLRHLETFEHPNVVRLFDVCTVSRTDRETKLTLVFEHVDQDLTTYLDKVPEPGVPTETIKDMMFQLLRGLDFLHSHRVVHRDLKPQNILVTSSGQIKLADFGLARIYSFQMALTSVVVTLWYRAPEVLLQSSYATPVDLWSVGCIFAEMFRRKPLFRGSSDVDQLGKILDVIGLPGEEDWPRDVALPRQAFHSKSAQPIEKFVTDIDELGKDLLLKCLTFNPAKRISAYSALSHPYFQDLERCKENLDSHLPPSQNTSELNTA
CDK6/Cyclin D3, sequence (P30281 whole entry partner): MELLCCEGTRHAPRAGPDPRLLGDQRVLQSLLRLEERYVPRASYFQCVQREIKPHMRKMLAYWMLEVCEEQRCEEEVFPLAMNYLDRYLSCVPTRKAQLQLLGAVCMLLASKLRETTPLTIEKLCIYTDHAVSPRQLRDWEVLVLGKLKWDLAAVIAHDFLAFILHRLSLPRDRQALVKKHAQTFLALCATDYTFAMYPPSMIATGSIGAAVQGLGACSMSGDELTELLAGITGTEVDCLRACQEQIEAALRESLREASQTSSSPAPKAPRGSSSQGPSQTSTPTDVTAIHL
Method: Compounds disclosed herein were tested for inhibition of CDK4/Cyclin D1 or CDK6/Cyclin D3 kinase in an assay based on the time-resolved fluorescence-resonance energy transfer (TR-FRET) methodology. The assay was carried out in 384-well low volume black plates in a reaction mixture containing CDK4/Cyclin D1 or CDK6/Cyclin D3, 1 mM ATP, 0.15 μM Rb (Ser780)-biotin substrate and 0-10 μM compound in buffer containing 50 mM HEPES pH7.0, 0.02% NaN3, 0.01% BSA, 0.1 mM Orthovanadate, 50 mM MgCl2, 1 mM DTT and 0.005% Tween-20. The kinase was incubated with compound for 60 minutes at room temperature and the reaction was initiated by the addition of ATP and Rb (Ser780)-biotin substrate. After reaction at room temperature for 120 minutes, an equal volume of stop/detection solution was added according to the manufacture's instruction (Cisbio Bioassays). The stop/detection solution contained Streptavidin-XL665 and Anti-pRb (Ser780) mAb-Eu Cryptate in Detection buffer (Cisbio Bioassays). Plates were incubated at room temperature for 60 minutes, and the TR-FRET signals (ex337 nm, em665 nm/620 nm) were recorded on a PHERAstar FSX plate reader (BMG Labtech). The inhibition percentage of CDK4/Cyclin D1 or CDK6/Cyclin D3 kinase activity in presence of increasing concentrations of compounds was calculated based on the ratio of fluorescence at 665 nm to that at 620 nm. The IC50 for each compound was derived from fitting the data to the four-parameter logistic equation by Dotmatics.

CDK4/Cyclin D1, sequence (P11802 whole entry): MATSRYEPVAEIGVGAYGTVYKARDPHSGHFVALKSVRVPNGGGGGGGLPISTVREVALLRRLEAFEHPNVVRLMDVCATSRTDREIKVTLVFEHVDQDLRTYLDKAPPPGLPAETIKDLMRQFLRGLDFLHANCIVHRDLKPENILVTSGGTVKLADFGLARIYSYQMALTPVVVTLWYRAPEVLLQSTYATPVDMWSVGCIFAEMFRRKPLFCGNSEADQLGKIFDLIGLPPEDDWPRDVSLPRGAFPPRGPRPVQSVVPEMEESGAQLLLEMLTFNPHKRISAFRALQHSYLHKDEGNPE
CDK4/Cyclin D1, sequence (P24385 whole entry partner): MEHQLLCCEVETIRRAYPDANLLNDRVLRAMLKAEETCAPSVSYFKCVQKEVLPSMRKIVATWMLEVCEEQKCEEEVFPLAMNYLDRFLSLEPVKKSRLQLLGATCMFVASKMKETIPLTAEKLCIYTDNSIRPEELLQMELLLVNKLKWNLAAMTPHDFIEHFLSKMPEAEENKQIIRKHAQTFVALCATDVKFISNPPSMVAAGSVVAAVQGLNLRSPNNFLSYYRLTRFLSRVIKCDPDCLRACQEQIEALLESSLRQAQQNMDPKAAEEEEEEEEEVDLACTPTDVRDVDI

## CC(C)n1c(CN2C[C@@H](O)[C@@H](F)C2)cc(=O)c2ccc(-c3nc(N[C@@H]4CCOC[C@H]4O)ncc3F)cc21 [Example 31, 7-(5-fluoro-2-(((3S,4R)-3-hydroxytetrahydro-2H-pyran-4-yl)amino)pyrimidin-4-yl)-2-(((3S,4R)-3-fluoro-4-hydroxypyrrolidin-1-yl)methyl)-1-isopropylquinolin-4(1H)-one]
[1]
  IC50: 13 nM
[2]
  IC50: 481 nM

## CNC(=O)c1cc(=O)c2c(F)cc(-c3nc(N[C@@H]4CCOC[C@H]4O)ncc3F)cc2n1C(C)C [Example 19, 5-fluoro-7-(5-fluoro-2-(((3S,4R)-3-hydroxytetrahydro-2H-pyran-4-yl)amino)pyrimidin-4-yl)-1-isopropyl-N-methyl-4-oxo-1,4-dihydroquinoline-2-carboxamide]
[1]
  IC50: 24 nM
[2]
  IC50: 504 nM

## Cc1c(CN(C)C)n(C(C)C)c2cc(-c3nc(N[C@@H]4CCOC[C@H]4O)ncc3F)ccc2c1=O [Example 108, 2-((dimethylamino)methyl)-7-(5-fluoro-2-(((3S,4R)-3-hydroxytetrahydro-2H-pyran-4-yl)amino)pyrimidin-4-yl)-1-isopropyl-3-methylquinolin-4(1H)-one]
[1]
  IC50: 14 nM
[2]
  IC50: 392 nM

## Cc1c(C2CCCN2)n(C(C)C)c2cc(-c3nc(N[C@@H]4CCOC[C@H]4O)ncc3F)ccc2c1=O (stereo partly drawn) [Example 389, 7-(5-fluoro-2-(((3S,4R)-3-hydroxytetrahydro-2H-pyran-4-yl)amino)pyrimidin-4-yl)-1-isopropyl-3-methyl-2-(pyrrolidin-2-yl)quinolin-4(1H)-one]
[1]
  IC50: 1.6 nM
[2]
  IC50: 220 nM

## CC(C)n1c(CN2CCC[C@H](C#N)C2)cc(=O)c2ccc(-c3nc(N[C@@H]4CCOC[C@H]4O)ncc3F)cc21 [Example 89, (S)-1-((7-(5-fluoro-2-(((3S,4R)-3-hydroxytetrahydro-2H-pyran-4-yl)amino)pyrimidin-4-yl)-1-isopropyl-4-oxo-1,4-dihydroquinolin-2-yl)methyl)piperidine-3-carbonitrile]
[1]
  IC50: 3.8 nM
[2]
  IC50: 407 nM

## CC(C)n1c(CN2CCC[C@@]3(CCN(C)C3=O)C2)cc(=O)c2ccc(-c3nc(N[C@@H]4CCOC[C@H]4O)ncc3F)cc21 [Example 51, (R)-7-((7-(5-fluoro-2-(((3S,4R)-3-hydroxytetrahydro-2H-pyran-4-yl)amino)pyrimidin-4-yl)-1-isopropyl-4-oxo-1,4-dihydroquinolin-2-yl)methyl)-2-methyl-2,7-diazaspiro[4,5]decan-1-one]
[1]
  IC50: 54 nM
[2]
  IC50: 648 nM

## Cc1c(CN[C@H]2C[C@H](F)C2)n(C(C)C)c2cc(-c3nc(N[C@@H]4CCOC[C@H]4O)ncc3F)ccc2c1=O [Example 111, 7-(5-fluoro-2-(((3S,4R)-3-hydroxytetrahydro-2H-pyran-4-yl)amino)pyrimidin-4-yl)-2-((((1r,3R)-3-fluorocyclobutyl)amino)methyl)-1-isopropyl-3-methylquinolin-4(1H)-one]
[1]
  IC50: 16 nM
[2]
  IC50: 352 nM

## CC(C)n1c(CN2CCOC[C@H]2C)cc(=O)c2ccc(-c3nc(N[C@@H]4CCOC[C@H]4O)ncc3F)cc21 [Example 82, 7-(5-fluoro-2-(((3S,4R)-3-hydroxytetrahydro-2H-pyran-4-yl)amino)pyrimidin-4-yl)-1-isopropyl-2-(((R)-3-methylmorpholino)methyl)quinolin-4(1H)-one]
[1]
  IC50: 12 nM
[2]
  IC50: 540 nM

## CC(C)n1c(CN2C3CCCC2CC(O)C3)cc(=O)c2ccc(-c3nc(N[C@@H]4CCOC[C@H]4O)ncc3F)cc21 (stereo partly drawn) [Example 90, 7-(5-fluoro-2-(((3S,4R)-3-hydroxytetrahydro-2H-pyran-4-yl)amino)pyrimidin-4-yl)-2-(((1R,3R,5S)-3-hydroxy-9-azabicyclo[3.3.1]nonan-9-yl)methyl)-1-isopropylquinolin-4(1H)-one]
[1]
  IC50: 5.7 nM
[2]
  IC50: 251 nM

## CNC(=O)c1c(C)c(=O)c2ccc(-c3nc(N[C@@H]4CCOC[C@H]4O)ncc3F)cc2n1C(C)C [Example 24, 7-(5-fluoro-2-(((3S,4R)-3-hydroxytetrahydro-2H-pyran-4-yl)amino)pyrimidin-4-yl)-1-isopropyl-N,3-dimethyl-4-oxo-1,4-dihydroquinoline-2-carboxamide]
[1]
  IC50: 24 nM
[2]
  IC50: 432 nM

## Cc1c(C2CCN2C)n(C(C)C)c2cc(-c3nc(N[C@@H]4CCOC[C@H]4O)ncc3F)ccc2c1=O (stereo partly drawn) [Example 387, 7-(5-fluoro-2-(((3S,4R)-3-hydroxytetrahydro-2H-pyran-4-yl)amino)pyrimidin-4-yl)-1-isopropyl-3-methyl-2-(1-methylazetidin-2-yl)quinolin-4(1H)-one]
[1]
  IC50: 5.1 nM
[2]
  IC50: 237 nM

## CC(C)n1c(CNc2ccccc2)cc(=O)c2ccc(-c3nc(N[C@@H]4CCOC[C@H]4O)ncc3F)cc21 [Example 94, 7-(5-fluoro-2-(((3S,4R)-3-hydroxytetrahydro-2H-pyran-4-yl)amino)pyrimidin-4-yl)-1-isopropyl-2-((phenylamino)methyl)quinolin-4(1H)-one]
[1]
  IC50: 11 nM
[2]
  IC50: 165 nM

## CC(=O)c1cn(C(C)C)c2cc(-c3nc(N[C@@H]4CCOC[C@H]4O)ncc3F)ccc2c1=O [Example 4, 3-acetyl-7-(5-fluoro-2-(((3S,4R)-3-hydroxytetrahydro-2H-pyran-4-yl)amino)pyrimidin-4-yl)-1-isopropylquinolin-4(1H)-one]
[1]
  IC50: 251 nM
[2]
  IC50: 979 nM

## CC(C)n1c(CNc2cnn(C)c2)cc(=O)c2ccc(-c3nc(N[C@@H]4CCOC[C@H]4O)ncc3F)cc21 [Example 78, 7-(5-fluoro-2-(((3S,4R)-3-hydroxytetrahydro-2H-pyran-4-yl)amino)pyrimidin-4-yl)-1-isopropyl-2-(((1-methyl-1H-pyrazol-4-yl)amino)methyl)quinolin-4(1H)-one]
[1]
  IC50: 22 nM
[2]
  IC50: 352 nM

## CC(C)n1c(CN2CCC[C@H](O)C2)cc(=O)c2ccc(-c3nc(N[C@@H]4CCOC[C@H]4O)ncc3F)cc21 [Example 56, 7-(5-fluoro-2-(((3S,4R)-3-hydroxytetrahydro-2H-pyran-4-yl)amino)pyrimidin-4-yl)-2-(((S)-3-hydroxypiperidin-1-yl)methyl)-1-isopropylquinolin-4(1H)-one]
[1]
  IC50: 7 nM
[2]
  IC50: 238 nM

## CC(C)n1c(CN[C@H]2CCOC2)cc(=O)c2ccc(-c3nc(N[C@@H]4CCOC[C@H]4O)ncc3F)cc21 [Example 67, 7-(5-fluoro-2-(((3S,4R)-3-hydroxytetrahydro-2H-pyran-4-yl)amino)pyrimidin-4-yl)-1-isopropyl-2-((((S)-tetrahydrofuran-3-yl)amino)methyl)quinolin-4(1H)-one]
[1]
  IC50: 21 nM
[2]
  IC50: 483 nM

## CC(C)n1c(CN2CCOCC2)cc(=O)c2ccc(-c3nc(N[C@@H]4CCOC[C@H]4O)ncc3Cl)cc21 [Example 26, 7-(5-chloro-2-(((3S,4R)-3-hydroxytetrahydro-2H-pyran-4-yl)amino)pyrimidin-4-yl)-1-isopropyl-2-(morpholinomethyl)quinolin-4(1H)-one]
[1]
  IC50: 16 nM
[2]
  IC50: 336 nM

## CC(C)n1c(CN2CCS(=O)(=O)CC2)cc(=O)c2ccc(-c3nc(N[C@@H]4CCOC[C@H]4O)ncc3F)cc21 [Example 83, 2-((1,1-dioxidothiomorpholino)methyl)-7-(5-fluoro-2-(((3S,4R)-3-hydroxytetrahydro-2H-pyran-4-yl)amino)pyrimidin-4-yl)-1-isopropylquinolin-4(1H)-one]
[1]
  IC50: 32 nM
[2]
  IC50: 928 nM

## Cc1c(CN2CCC[C@@H](O)C2)n(C(C)C)c2cc(-c3nc(N[C@@H]4CCOC[C@H]4O)ncc3F)ccc2c1=O [Example 122, 7-(5-fluoro-2-(((3S,4R)-3-hydroxytetrahydro-2H-pyran-4-yl)amino)pyrimidin-4-yl)-2-(((R)-3-hydroxypiperidin-1-yl)methyl)-1-isopropyl-3-methylquinolin-4(1H)-one]
[1]
  IC50: 1.6 nM
[2]
  IC50: 68.8 nM

## CC(C)n1c(CN2CC[C@@H](F)[C@H](O)C2)cc(=O)c2ccc(-c3nc(N[C@@H]4CCOC[C@H]4O)ncc3F)cc21 [Example 84, 7-(5-fluoro-2-(((3S,4R)-3-hydroxytetrahydro-2H-pyran-4-yl)amino)pyrimidin-4-yl)-2-(((3R,4R)-4-fluoro-3-hydroxypiperidin-1-yl)methyl)-1-isopropylquinolin-4(1H)-one]
[1]
  IC50: 6.8 nM
[2]
  IC50: 170 nM
